Data taken from patent US20080177115A1, “Isotopically labeled alpha-keto acids and esters” (Spectra Gases, Inc., priority 2006, published 2008).

Columns and labels:
Assay type in all cases: physicochemical
[1] = Concentration studies: stability of pyruvic acid solutions in water at higher concentrations
Protocol: Each of these commercial solutions were subjected to light for 6-weeks at temperatures ranging from about 22° C. to about 26° C. At each of the concentrations listed below, it was discovered that the pyruvic acid solutions were stable.

[2] = Titration of aqueous sample with sodium hydroxide, composition by HPLC (dimer formation); details: pH of about 6.2 after titration with sodium hydroxide
Source text: The molarity of sample 4 was confirmed to be 0.025M by titrating the aqueous sample with sodium hydroxide. […] It was also discovered that at pHs greater than 5.8, such as at a pH of about 6.2, some of the pyruvic acid was present in the form of a dimerized sodium salt. […] As such, it was discovered that to minimize dimmer formation, it may be necessary to control the pH of [1-^13C]pyruvate solutions, and in particular, any aqueous solution should be maintained at a pH of about 6.5 or less, more preferably 6.0 or less, and even more preferably 5.8 or less.

[3] = Shelf storage stability of [1-^13C]pyruvic acid in water, compared by ^1H and ^13C NMR spectra; details: 0.025M in water; for Shelf stability (NMR spectra unchanged): all conditions of Table 1
Protocol: Samples of isotopically labeled [1-^13C]pyruvic acid, having Formula VI and synthesized as discussed immediately below, were subjected to various conditions as depicted in Table 1, in order to establish the compound's shelf storage stability.
The resulting [1-^13C]pyruvic acid was tested as follows in Table 1:
^1H and ^13C NMR spectra of the distilled [1-^13C]pyruvic acid in water (0.025M) were acquired at the onset of the study and prior to exposing the samples to the various conditions specified in Table 1. ^1H and ^13C NMR spectra were again acquired for each of the samples after being exposed to the aforementioned conditions on a weekly basis for 12-weeks. The spectra acquired after exposure were compared visually and appeared to remain unchanged as compared with the spectra acquired prior to exposure, i.e. the spectra were as expected for [1-^13C]pyruvic acid in water. As such, it was concluded that each of the samples were shelf stable. Similarly, ^1H and ^13C NMR spectra acquired after 17-weeks of exposure remained unchanged as compared with the spectra acquired prior to exposure.

[4] = Sample 3: Room temperature (about 22° C. to about 26° C.), Dark
[5] = Sample 4: Room temperature (about 22° C. to about 26° C.), Light

| SMILES | Stability of solutions in water ([1]; each of the concentrations of Table 2, light, 6-weeks, about 22° C. to about 26° C.) | Content of dimerized [1-^13C]pyruvate salt by HPLC [2] | Content of sodium [1-^13C]pyruvate by HPLC [2] | Share of the pyruvic acid accounted for by dimerized salt [2] | Stability of solutions in water at higher concentrations (believed) ([1]; at least the concentrations of Table 2 in water, inferred from commercial pyruvic acid) | Shelf stability, 12 weeks ([3]; Sample 1: −10° C., Dark) | Shelf stability, 17 weeks ([3]; Sample 1: −10° C., Dark) | Shelf stability, 12 weeks ([3]; Sample 2: 4° C., Dark) | Shelf stability, 17 weeks ([3]; Sample 2: 4° C., Dark) | Shelf stability, 12 weeks [3, 4] | Shelf stability, 17 weeks [3, 4] | Shelf stability, 12 weeks [3, 5] | Shelf stability, 17 weeks [3, 5] | Shelf stability (NMR spectra unchanged) ([3]; 17-weeks) | Shelf stability (NMR spectra unchanged) ([3]; weekly for 12-weeks) |
| --- | --- | --- | --- | --- | --- | --- | --- | --- | --- | --- | --- | --- | --- | --- | --- |
| CC(=O)C(=O)O [Pyruvic acid, 2-oxopropanoic acid, reference compound] | stable | – | – | – | – | – | – | – | – | – | – | – | – | – | – |
| CC(=O)[13C](=O)O [[1-^13C]pyruvic acid] | – | 2-4% | 89% | 4-6% | stable | Stable | Stable | Stable | Stable | Stable | Stable | Stable | Stable | shelf stable | shelf stable |
